Results from patent US20260137807A1, “COMPOSITIONS AND METHODS FOR DELIVERING A MACROMOLECULE TO A CELL” (AstraZeneca AB, priority 2022, published 2026).

Tests used:
Format in all cases: cell-based
N2A_Luc705 cells = test: Splice switching activity assay, 24 hr SMC treatment, Examples 4C/4D; conditions: compounds at 5 μM, 1 μM Luc 705 SSO, FIG. 25B
Procedure: (§1) U2OS_Luc705 and N2A_Luc705 cells were seeded in 96-well plates at 10,000 cells per well in growth media with 1 μM Luc705-SSO. The various SMCs were diluted directly into prepared growth media. After 24 hr to allow adherence and SSO internalization, 10 μl of diluted SMC was added into each well at indicated concentrations. For a positive control, SSOs were complexed with Lipofectamine 2000 for 30 min at RT and cells treated with a final concentration of 200 nM. ON concentrations above 200 nM would require LF2000 to be used in excess of the cells' toxicity threshold. After 24 hr treatment, cells were lysed with 0.1% TritonX-100 (Sigma Aldrich, cat no. X100) in 1× PBS (Gibco, cat no. 10010023).
(§2) For the detection of luciferase activity, 30 μL of cell lysate was transferred to white-walled plates. The luciferase intensity in each well was immediately measured via luminometer following auto-injection of 25 μL Luciferin substrate as per the Promega Firefly Luciferase Assay System. The timing parameters of photon measurements were optimized for this procedure.
as §1, with “The” for “U2OS_Luc705 and N2A_Luc705 cells were seeded in 96-well plates at 10,000 cells per well in growth media with 1 μM Luc705-SSO. The”

U2OS_Luc705 cells = test: as above; conditions: compounds at 5 μM, 1 μM Luc 705 SSO, FIG. 25A
Procedure: as §1, §2
as §1, with “The” for “U2OS_Luc705 and N2A_Luc705 cells were seeded in 96-well plates at 10,000 cells per well in growth media with 1 μM Luc705-SSO. The”

Huh7 mCherry-Gal9 cells = test: mCherry-GAL9 recruitment assay; conditions: for relocalisation of Gal9 from cytosolic to punctate: 10-point dose titration, 2 hours, FIG. 4; for window in concentration between induction of endosomal rupture and cytotoxicity: Huh7, FIG. 5; for quantitation of Gal9 recruitment over time: Huh7, FIG. 7
Excerpt: (§3) All compounds were subjected to a mCherry-GAL9 recruitment assay. Under normal conditions, mCherry-GAL9 is homogenously dispersed in the cytosol. When an endosomal leakage event is detected, mCherry-GAL9 translocates to the damaged endosome (Du Rietz et al. (2020) Nat. Commun. 11:1809) The resulting localization pattern of discrete puncta can be visualized and quantitated.
(§4) HeLa and Huh7 cell lines stably expressing mCherry-GAL9 were generated as described by (bioRxiv) (Munson, M. et al. (2021) Communications Biology, 4(211): 1-14) and seeded into 384-well CellCarrier Ultra plates (PerkinElmer: 6007558) at 3000 or 3500 cells/well respectively, 16 h before experimental usage.
(§5) Dose-response curves of select compounds were generated using an Echo 655T acoustic dispenser (Labcyte) to dispense the indicated compounds into source plates (Greiner: 781280) containing growth media. At experimental start points, media containing appropriate compounds and doses was transferred to plates using a liquid handling robot (Agilent Bravo).
(§6) At assay endpoints, cells were washed 2× PBS at RT and fixed in 4% PFA (VWR: 9713.1000) for 15 mins/RT. Cells were washed a further 3× PBS before the addition of PBS+1 μg/ml Hoechst 33342 (ThermoFisher Scientific: H21492) for a minimum of 1 h before imaging.
(§7) Plates were imaged using a spinning-disk confocal microscope (Yokogawa: CV7000) with a 20× objective (NA 0.75). Images were processed utilizing Columbus image-analysis software (PerkinElmer: v2.9.0) to identify and quantify cells and mCherry-GAL9 structures. The resulting data were processed and normalized in Spotfire (Tibco: v10.3) and plotted in Prism (Graphpad: v8.0.1). Image panels were assembled using the FigureJ plugin for FIJI. (Mutterer and Zinck (2013) J. Microsc. 252(1):89-91).
(§8) Cells were subjected to a 10-point concentration dilution (0-15 μM) for 2 hours and then fixed and imaged (FIG. 3 and FIG. 4). Images were analyzed and curves were generated from both mCherry-GAL9 puncta quantitation and cell survival as determined by nuclear morphology (FIG. 5). The GAL9 recruitment response support the functional splice-switching data with SSOs, confirming the mCherry-GAL9 assay as a powerful tool for screening endosomolytic compounds and supporting the hypothesis that AZ2467 (Compound 6) and AZ4800 (Compound 2) promote SSO activity by inducing endosomal rupture. The GAL9 assay was again conducted, this time in live cells for 4 hours with select compounds for screening. Compounds were screened at 5 μM (FIG. 6-8) or 0.3125-10 μM (FIG. 35-38). FIG. 39 and FIG. 47 provide results for select compounds at various doses 0.3125-10 μM.

HeLa mCherry-Gal9 cells = test: mCherry-GAL9 recruitment assay; conditions: for relocalisation of Gal9 from cytosolic to punctate: 10-point dose titration, 2 hours, FIG. 3; for window in concentration between induction of endosomal rupture and cytotoxicity / quantitation of Gal9 recruitment over time: HeLa; for window in concentration between induction of endosomal rupture and cytotoxicity: FIG. 5; for quantitation of Gal9 recruitment over time: FIG. 8
Excerpt: as §3, §4, §5, §6, §7, §8

HeLa_Luc705 cells = test: Splice switching activity assay, 24 hr SMC treatment, Examples 4B/4D
Procedure: as §1, with “HeLa_Luc705 cells were” for “U2OS_Luc705 and N2A_Luc705 cells were”, “media with 2 μM Luc705-SSO or 1 μM” for “media with 1 μM”
as §2
as §1, with “The” for “U2OS_Luc705 and N2A_Luc705 cells were seeded in 96-well plates at 10,000 cells per well in growth media with 1 μM Luc705-SSO. The”

mCherry-GAL9 cells = test: mCherry-GAL9 assay in live cells for 4 hours, screening; conditions: 5 μM (FIG. 6-8)
Procedure: as §8

HeLa Luc705 cells = test: Splice switching activity assay (Luc705 luciferase reporter), Example 4A
Excerpt: HeLa Luc705 and Huh7 Luc705 cells were used to screen and characterize the SMC generated in Example 2 for their ability to increase levels of an SSO-induced splice variant by co-treatment of the cells with the SSO and SMC. The Luc705 reporter construct was used for quantitation of luciferase protein produced as a result of functional SSO delivery. (Kang et al. (1998) Biochemistry, 37(18):6235-6239; Rocha et al. (2016) Four Novel Splice-Switch Reporter Cell Lines: Distinct Impact of Oligonucleotide Chemistry and Delivery Vector on Biological Activity. Nucleic Acid Ther. 26(6):381). Briefly, a plasmid carrying the luciferase coding sequence interrupted by an insertion of intron 2 from β-globin pre-mRNA carrying a cryptic splice site was stably transfected into cells. Unless the aberrant slice site was masked by an antisense oligonucleotide, the pre-mRNA of luciferase was improperly processed.
HeLa Luc705 and Huh7 Luc705 cells were seeded in 96-well plates at 10,000 cells per well in growth media containing 1 μM Luc705-SSO and incubated to allow adherence and oligo internalization. After 24 hours, 10 μl of SMC diluted in Growth Media (DMEM+10% FBS) was added into each well. After 2 hours, media was removed from the wells and replaced with fresh growth media for 4 hours to allow for translation of the variant proteins. The media was then removed, and cells were lysed with 0.1% Triton-PBS.
To detect luciferase activity, 30 μL of cell lysate was transferred to white-walled 96-well plates. Luciferase intensity in each well was measured using a GloMax® 96 Microplate Luminometer machine (Promega) following auto-injection of 25 μL Luciferin substrate (Firefly Luciferase Assay System: Promega) per well. Photon measurements were acquired for 10 seconds, starting 2 seconds after injection.
To determine whether AZ4800 (Compound 2, FIG. 1B) and SSO must be present in the cell media simultaneously for Compound 2 to produce its synergistic effects, the treatment plan was modified from the UNC2383 treatment plan detailed by Wang et al. (2017) ACS Chem. Biol. 12(8):1999-2007 to include a 24 hour pre-treatment with SSO, followed by the addition of Compound 2 for two hours, followed by the removal of SSO and Compound 2, and finally a 4-hour protein translation period (FIG. 10).

COc1nn(C2CCN(C)CC2)cc1Nc1ncc(F)c(-n2ccc3c(C#N)cccc32)n1 [Compound 8] was tested, and the “increase in SSO activity relative to oligo only” value (N2A_Luc705 cells) was “induced an increase in SSO activity relative to oligo only”, the “increase in SSO activity relative to oligo only” value (U2OS_Luc705 cells) was “induced an increase in SSO activity relative to oligo only” and the “dose from which GAL9+ remodelling is induced” value (Huh7 mCherry-Gal9 cells; FIG. 40) was no less than 2.5 µM. The “GAL9 response, rank among exemplified compounds” value (Huh7 mCherry-Gal9 cells; doses 1.25-5 μM, 1, 2, 16 hours, FIG. 33) was “second most potent”, the “GAL9 response, rank among exemplified compounds” value (HeLa mCherry-Gal9 cells; doses 1.25-5 μM, 1, 2, 16 hours, FIG. 34) was “second most potent” and the “increase in SSO activity” value (HeLa_Luc705 cells; 2 μM Luc 705 SSO, FIG. 24) was “increase in SSO activity”. The “increase in SSO activity” value (HeLa_Luc705 cells; 2 μM Luc 705 SSO, FIG. 26) was “induced an increase in SSO activity”.
With CCOc1nn(C2CCNCC2)cc1Nc1ncc(F)c(-n2ccc3c(C#N)cccc32)n1 [Compound 21] the “increase in SSO activity relative to oligo only” value (N2A_Luc705 cells) was “induced an increase in SSO activity relative to oligo only”, the “increase in SSO activity relative to oligo only” value (U2OS_Luc705 cells) was “induced an increase in SSO activity relative to oligo only” and the “increase in SSO activity” value (HeLa_Luc705 cells; 2 μM Luc 705 SSO, FIG. 24) was “increase in SSO activity”. The “increase in SSO activity” value (HeLa_Luc705 cells; 2 μM Luc 705 SSO, FIG. 26) was “induced an increase in SSO activity”.
For CCOc1nn(C2CCNCC2)cc1Nc1ncc(Cl)c(-c2c[nH]c3ccccc23)n1 [Compound 6], the “GAL9 recruitment, reason for selection for further characterization” value (mCherry-GAL9 cells) was “efficacy at shorter-term timepoints”, the “increase in functional SSO activity” value (HeLa Luc705 cells; 5 μM compound, 1 μM SSO or 100 nM SSO, FIG. 2B) was “increase in activity” and the “increase in SSO activity” value (HeLa Luc705 cells; up to 6 hours at 10 μM, FIG. 11B) was 200 fold. The “relocalisation of Gal9 from cytosolic to punctate” value (“relocalisation of Gal9” below) (Huh7 mCherry-Gal9 cells) was “dose-dependent manner”, the “window in concentration between induction of endosomal rupture and cytotoxicity” value (“window” below) (Huh7 mCherry-Gal9 cells) was “narrow window” and the “quantitation of Gal9 recruitment over time” value (from here on “quantitation … over time”) (Huh7 mCherry-Gal9 cells) was “time-dependent endosomal rupture”. The “relocalisation of Gal9” value (HeLa mCherry-Gal9 cells) was “dose-dependent manner”, the “window” value (HeLa mCherry-Gal9 cells) was “narrow window” and the “quantitation … over time” value (HeLa mCherry-Gal9 cells) was “time-dependent endosomal rupture”.
COc1nn(C2CCNCC2)cc1Nc1ncc(C#N)c(-n2ccc3c(C(F)(F)F)cccc32)n1 [Compound 20] was tested, and the “increase in SSO activity relative to oligo only” value (U2OS_Luc705 cells) was “induced an increase in SSO activity relative to oligo only”.
In the case of COc1nn(C2CCNCC2)cc1Nc1ncc(F)c(-n2ccc3ccc(C#N)cc32)n1 [Compound 22], the “increase in SSO activity relative to oligo only” value (N2A_Luc705 cells) is reported as “induced an increase in SSO activity relative to oligo only” and the “increase in SSO activity relative to oligo only” value (U2OS_Luc705 cells) is reported as “induced an increase in SSO activity relative to oligo only”.
With COc1ccc2c(-c3nc(Nc4cn(C5CCNCC5)nc4OC)ncc3Cl)c[nH]c2c1 [Compound 5] the “GAL9 recruitment, reason for selection for further characterization” value (mCherry-GAL9 cells) was “efficacy at shorter-term timepoints”, the “quantitation … over time” value (Huh7 mCherry-Gal9 cells) was “time-dependent endosomal rupture” and the “quantitation … over time” value (HeLa mCherry-Gal9 cells) was “time-dependent endosomal rupture”.
COc1nn(C2CCNCC2)cc1Nc1ncc(F)c(-c2c[nH]c3cccc(C)c23)n1 [Compound 25] was tested, and the “increase in SSO activity relative to oligo only” value (U2OS_Luc705 cells) was “induced an increase in SSO activity relative to oligo only”.
With O=C(Nc1nc2ccccc2n1CCN1CCCC1)c1cc2cc(Cl)ccc2o1 [UNC2383, reference compound] the “relocalisation of Gal9” value (Huh7 mCherry-Gal9 cells) was “dose-dependent manner”, the “window” value (Huh7 mCherry-Gal9 cells) was “narrow window” and the “quantitation … over time” value (Huh7 mCherry-Gal9 cells) was “time-dependent endosomal rupture”. For the same molecule, the “relocalisation of Gal9” value (HeLa mCherry-Gal9 cells) was “dose-dependent manner” and the “window” value (HeLa mCherry-Gal9 cells) was “narrow window”.
With CCOc1nn(C2CCNCC2)cc1Nc1ncc(C(F)(F)F)c(-c2c[nH]c3ccccc23)n1 [Compound 7] the “increase in SSO activity” value (HeLa_Luc705 cells; 2 μM Luc 705 SSO, FIG. 26) was “induced an increase in SSO activity” and the “increase in SSO activity” value (HeLa_Luc705 cells; 2 μM SSO, FIG. 23A) was “increase in SSO activity”.
